The values below are quoted from earlier work in patent US12653874B2, “Nant cancer vaccine” (NantCell, Inc., priority 2016, dated 2026).

Some results are limits rather than exact numbers.

One data set relates to advanced melanoma. The note with it: unresectable or advanced melanoma, result in words.
Setting [1] is: patients receiving treatment (Conroy 2011).

FOLFIRINOX: in the data set on pancreatic cancer (setting [1]), the “median OS” value is on record as 11.1 months and the “median PFS” value is recorded as 6.4 months. The “OS and PFS versus gemcitabine monotherapy” value in the data set with pancreatic cancer (result in words) was “improves OS and PFS over monotherapy with gemcitabine”.

Take rituximab: anti-CD20 antibody: the “response rate to single agent retreatment” value in the data set on CD20-positive NHL (rituximab refractory (RR) patients, reasonable estimate, trial data not reported) is listed as below 5%. Also, in the data set with CD20-positive NHL (rituximab sensitive (RS) patients), the “patients responding to retreatment” value is on record as “approximately 40%”.

In the case of `CC(C)(C)c1nc(-c2cccc(NS(=O)(=O)c3c(F)cccc3F)c2F)c(-c2ccnc(N)n2)s1` [Dabrafenib], in the data set on advanced melanoma, the PFS result is “improvement in PFS when compared to dacarbazine”.
